# Source: US11613587B2, “Combination therapy of T cell activating bispecific antigen binding molecules and PD-1 axis binding antagonists” (Hoffmann-La Roche Inc., priority 2014, dated 2023)
# Key:
# [1] = molecular target: T1, FolR1 on Hela, Skov3, OVCAR5, HT29, MKN45 tumor cells (Homo sapiens, UniProt P15328); assay: Binding to tumor cells with different FolR1 expression levels (flow cytometry)
# T1 construct: endogenous in cells; host or cells: tumour cell line panel (HeLa, SKOV3, OVCAR5, HT-29; MKN-45 as FolR1-negative line)
# Source text: FIGS. 6A-E depict graphs summarizing binding of FolR1 IgGs to cells with different FolR1 expression levels. […] DP47 IgG was included as isotype control and MKN-45 were included as FolR1 negative cell line.
# The FolR1 TCBs were used to determine T cell mediated killing of tumor cells expressing FoLR1. A panel of potential target cell lines was used to determine FoLR1 binding sites by Qifikit analysis.
# The used panel of tumor cells contains FolR1 high, intermediate and low expressing tumor cells and a FolR1 negative cell line.
# The amount of bound construct is proportional to the FolR1 expression level and there is still good binding of the constructs to the FolR1 low cell line HT-29 detectable. […] DP47 TCB is an untargeted TCB and was prepared as described in WO2014/131712.
# [2] = test system: PBMCs co-cultured with Skov3; assay: Activation of T-cells from healthy donors by FolR1-TCB (PBMC co-cultured with Skov3); type: cell-based, human; details: 0.6 pM to 2 nM, 24 h
# Protocol: FIGS. 40A-C show activation of CD8^+ T-cells upon exposure to increasing concentrations of FolR1-TCB. PBMCs were co-cultured with Skov3 cells for 24 h in the presence or absence of FolR1-TCB or the unspecific control DP-47-TCB. […] Shaded histogram: isotype control; open histogram: anti-FolR1-antibody. FIG. 40B: The expression of the activation markers CD25, CD137, and ICOS on CD8^+ T-cells was determined by flow cytometry. FIG. 40C: IFN-v.
# To assess the effect of FolR1-TCB on T-cell activation peripheral blood mononuclear cells (PBMCs) from healthy donors were co-cultured with the FolR1^+ ovarian cancer cell line Skov3 (FIG. 40A). […] In addition, T-cells secreted IL-2, IFN-γ, and TNF.
# [3] = test system: SKOV3 cells; assay: Killing assay with tumor samples and CFSE-labelled Skov3 cells; type: cell-based
# Protocol: To determine the FolR1-TCB induced tumor cell killing, 3×10^4 CFSE-labelled Skov3 cells were cocultured with tumor samples in the presence or absence of FolR1-TCB at a concentration of 2 nM for 24 h in 96-well flat bottom cell culture plates. The E:T ratio (E: effector CD45+CD3+ cells; T: target FolR1^+ cells from tumor and added Skov3 cells) was adjusted to 1:1 in each well and the cell number of the added tumor samples was calculated for each sample according to prior characterization by flow cytometry. Cell death of Skov3 cells was determined by flow cytometry by measuring activated caspase 3 and the live/dead marker Live/Dead-near-IR. The assay was performed in triplicates. The FolR1-TCB mediated killing was calculated according to the following equation: % of specific killing=100−[(% of Skov3 live cells in FolR1-TCB treated sample/% of Skov3 live cells in untreated sample)×100].
# To compare the FolR1-TCB-induced killing capacity of T-cells between tumor samples, and to exclude additional factors suppressing T-cell functionality, such as expression of PD-L1 on the tumor cells, we exogenously added CFSE-labeled FolR1^+ Skov3 cells to the tumor digests and adjusted the E:T ratio to 1:1, essentially as described above. We then measured the FolR1-TCB-induced killing of CFSE-labeled Skov3 cells, which allowed us to also include FolR1^− tumor samples into the analysis. […]
# [4] = test system: SKOV3 cells; assay: T cell mediated killing (LDH release); type: cell-based, human; details: SKOV3 and HT-29 cells, used concentrations
# Protocol: FIGS. 7A-L depict graphs summarizing T cell mediated killing of HT-29 and SKOV3 cells. FolR1 TCBs were used to test T cell mediated killing of HT-29 and SKOV3 tumor cells and upregulation of activation marker on T cells upon killing. […] DP47 TCB was included as negative control. After 48 h incubation upregulation of the activation marker CD25 and CD69 on CD8 T cells and CD4 T cells upon killing of SKOV3 (FIGS. 7E-H) or HT-29 (FIG. 7I-L) tumor cells was assessed by flow cytometry.
# Overall killing of SKOV3 cells was higher compared to HT-29 which reflects the higher expression levels of FolR1 on SKOV3 cells (FIGS. 7A-D). In line with this, a strong upregulation of the activation marker CD25 and CD69 on CD4^+ T cells and CD8^+ T cells was detected. Activation of T cells was very similar in the presence of SKOV3 cells and HT-29 cells.
# [5] = test system: T cells in FolR1 positive tumor digests or malignant effusions; assay: Ex vivo treatment of tumor samples with FolR1-TCB (T cell activation and effector function); type: cell-based, human; details: 24 h
# Protocol: FolR1 positive tumor digests or malignant effusions were thawed, washed and plated in 96-well flat bottom cell culture plates (BD Falcon) with a density of […] cells/200 μl/well in complete medium (DMEM+Sodium Pyruvate (1 mM)+MEM non essential AA (1×)+L-Glutamin (2 mM)+Penicillin/Streptomycin ([…])+2-Mercaptoethanol (50 nM)+Ciproxin (1 mg/ml)+10% human Serum). The samples were cultured in the presence or absence of FolR1-TCB or DP47 TCB at a concentration of 2 nM for 24 h. Activation of CD8^+ and CD4^+ T cells (CD45^+CD3^+) upon FolR1-TCB treatment was determined by multicolor flow cytometry by measuring the expression of the cell surface markers CD25, CD69, CD137, ICOS, PD-1 and Tim-3. Furthermore the expression of granzyme B and IFN-γ was determined by intracellular staining. […]
# We analyzed whether the expression of inhibitory receptors could be correlated with a diminished T-cell functionality upon FolR1-TCB treatment.
# [6] = test system: CD4+ and CD8+ T cells in whole blood; assay: T cell activation in whole blood; type: cell-based, human; details: 24 h after addition
# Source text: FIGS. 9A-D depict graphs summarizing activation marker upregulation in whole blood.
# DP47 TCB was included as negative control.
# [7] = test system: T cells in EpCAM positive tumor digests or malignant effusions; assay: Ex vivo treatment of tumor samples with catumaxomab; type: cell-based, human; details: 4 NSCLC tumor digests, 10 ng/ml, 24 h
# Protocol: The trifunctional TCB catumaxomab (Removab®) was obtained from Fresenius. The experimental conditions were similar as indicated above for FolR1-TCB. Briefly, EpCAM positive tumor digests or malignant effusions were cultured in the presence or absence of catumaxomab at a concentration of 10 ng/ml for 24 h. Analysis of CD8^+ and CD4^+ positive T cells (CD45+CD3+) was performed as described above.
# To determine to which extent catumaxomab induces T cell activation and to confirm the findings described above using a second, independent T cell bispecific molecule, 4 tumor digests from patients with NSCLC were exposed to catumaxomab, a trifunctional bispecific antibody recognizing CD3 on T cells and EpCAM on tumor cells. Then, T cells were characterized by flow cytometry for expression of activation markers and T cell effector functions (FIG. 17A-D). […] Accordingly, the baseline expression of inhibitory receptors differed between the patients (FIG. 17E-H).
# [8] = test system: T cells in tumor digests; assay: Polyclonal stimulation with anti-CD3/CD28 antibodies and PD-1 blockade; type: cell-based, human; details: 10 μg/ml, 24 hrs
# [9] = test system: T cells in FolR1+ tumor digests or malignant effusions; assay: FolR1-TCB with PD-1 blockade in tumor digests or malignant effusions (cytokine secretion); type: cell-based, human; details: combined with FolR1-TCB
# Protocol: FIG. 38A-D: FolR1^+ tumor digests or malignant effusions were cultured for 24 h with FolR1-TCB in the presence or absence of a PD-1 blocking antibody. […] The increase in cytokine secretion upon combined FolR1-TCB and anti-PD-1 treatment compared with FolR1-TCB alone was determined in PD-1^hi scarce and abundant tumors. FIG. 38E: Tumor digests or malignant effusions were co-cultured with exogenously added fluorescently labeled Skov3 cells at an E:T ratio of 1:1 for 24 h in the presence or absence of a PD-1 blocking antibody and FolR1-TCB. The increase in specific killing by the anti-PD-1 antibody was compared in PD-1^hi scarce and abundant tumors. p-values were calculated using the unpaired Mann-Whitney test.
# As the level of PD-1 expression on TILs correlates with the efficacy of FolR1-TCB, we analyzed whether blockade of the PD-1/PD-L1 axis in combination with FolR1-TCB treatment might be able to restore T-cell function.
# T1 sequence (P15328 25-257): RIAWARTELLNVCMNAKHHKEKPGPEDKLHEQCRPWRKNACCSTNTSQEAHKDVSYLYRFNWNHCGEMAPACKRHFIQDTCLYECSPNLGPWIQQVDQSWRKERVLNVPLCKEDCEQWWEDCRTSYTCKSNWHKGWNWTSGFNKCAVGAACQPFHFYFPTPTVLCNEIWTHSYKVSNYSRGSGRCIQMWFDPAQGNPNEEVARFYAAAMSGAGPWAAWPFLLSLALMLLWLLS
substance,measurement,setting,value
"DP47 TCB: untargeted TCB, negative control, prepared as described in WO2014/131712",binding to panel of tumor cell lines,[1],no binding
same,"T-cell activation (CD25, CD137, ICOS)",[2],did not induce any T-cell activation
same,tumor cell killing,"[3]; E:T 1:1, 24 h",did not induce any tumor cell killing
same,induction of tumor cell killing,[4],does not induce any killing
same,T cell activation,[5],did not induce any T cell activation
Mov19 TCB: reference FolR1/CD3 T-cell bispecific with Mov19 binder [reference compound],upregulation of CD25 and CD69 on CD4+ and CD8+ T cells in whole blood,[6],No activation of T cells
catumaxomab,catumaxomab induced T cell activation,[7],striking heterogeneity
nivolumab: PD-1 blocking antibody,cytotoxic tumor cell killing upon additional PD-1 blockade,"[3]; combined with FolR1-TCB, PD-1hi scarce and abundant tumors",could neither be improved
same,"restoration of T cell effector function (IL-2, IFN-γ, TNF-α)",[8],only in some patients
same,"secretion of IFN-γ, TNF, IL-2 and perforin upon PD-1 blockade",[9]; PD-1hi abundant tumors,failed to elicit any response
same,"secretion of IFN-γ, TNF, IL-2 and perforin upon PD-1 blockade",[9]; PD-1hi scarce tumors,could be increased only in some of the PD-hi scarce tumors
